Assay results as given in PubChem BioAssay AID1259407 (Chemical Carcinogenesis Research Information System (CCRIS), 2018).
Active and inactive are the calls of the source. The rule behind the calls is not given here.

Tested on: CCRIS mutagenicity, Ames/micronucleus/aberration tests
Test: CCRIS mutagenicity studies
[1] = Test System: AMES SALMONELLA TYPHIMURIUM, Strain/Indicator: TA98, Metabolic Activation: NONE, Method: STANDARD PLATE
[2] = Test System: AMES SALMONELLA TYPHIMURIUM, Strain/Indicator: TA98, Metabolic Activation: RAT, LIVER, S-9, AROCLOR 1254, Method: STANDARD PLATE
[3] = Test System: AMES SALMONELLA TYPHIMURIUM, Strain/Indicator: TA100, Metabolic Activation: NONE, Method: STANDARD PLATE
[4] = Test System: AMES SALMONELLA TYPHIMURIUM, Strain/Indicator: TA100, Metabolic Activation: RAT, LIVER, S-9, AROCLOR 1254, Method: STANDARD PLATE
[5] = Test System: AMES SALMONELLA TYPHIMURIUM, Strain/Indicator: TA1535, Metabolic Activation: NONE, Method: STANDARD PLATE
[6] = Test System: AMES SALMONELLA TYPHIMURIUM, Strain/Indicator: TA97, Metabolic Activation: NONE, Method: PREINCUBATION
[7] = Test System: AMES SALMONELLA TYPHIMURIUM, Strain/Indicator: TA98, Metabolic Activation: NONE, Method: PREINCUBATION
[8] = Test System: AMES SALMONELLA TYPHIMURIUM, Strain/Indicator: TA100, Metabolic Activation: NONE, Method: PREINCUBATION
[9] = Test System: AMES SALMONELLA TYPHIMURIUM, Strain/Indicator: TA1535, Metabolic Activation: NONE, Method: PREINCUBATION
[10] = Test System: AMES SALMONELLA TYPHIMURIUM, Strain/Indicator: TA1537, Metabolic Activation: NONE, Method: PREINCUBATION
[11] = Test System: AMES SALMONELLA TYPHIMURIUM, Strain/Indicator: TA98, Metabolic Activation: HAMSTER, LIVER, S-9, AROCLOR 1254 (10%), Method: PREINCUBATION
[12] = Test System: AMES SALMONELLA TYPHIMURIUM, Strain/Indicator: TA98, Metabolic Activation: RAT, LIVER, S-9, AROCLOR 1254 (10%), Method: PREINCUBATION
[13] = Test System: AMES SALMONELLA TYPHIMURIUM, Strain/Indicator: TA100, Metabolic Activation: HAMSTER, LIVER, S-9, AROCLOR 1254 (10%), Method: PREINCUBATION
[14] = Test System: AMES SALMONELLA TYPHIMURIUM, Strain/Indicator: TA100, Metabolic Activation: RAT, LIVER, S-9, AROCLOR 1254 (10%), Method: PREINCUBATION
[15] = Test System: AMES SALMONELLA TYPHIMURIUM, Strain/Indicator: TA1535, Metabolic Activation: HAMSTER, LIVER, S-9, AROCLOR 1254 (10%), Method: PREINCUBATION
[16] = Test System: AMES SALMONELLA TYPHIMURIUM, Strain/Indicator: TA1535, Metabolic Activation: RAT, LIVER, S-9, AROCLOR 1254 (10%), Method: PREINCUBATION
[17] = Test System: AMES SALMONELLA TYPHIMURIUM, Strain/Indicator: TA1537, Metabolic Activation: HAMSTER, LIVER, S-9, AROCLOR 1254 (10%), Method: PREINCUBATION
[18] = Test System: AMES SALMONELLA TYPHIMURIUM, Strain/Indicator: TA1537, Metabolic Activation: RAT, LIVER, S-9, AROCLOR 1254 (10%), Method: PREINCUBATION

Measured: mutagenic call

O=C(OCc1ccc(Cl)cc1Cl)c1cccc2cccnc12
inactive: [1] inactive; negative | [2] inactive; negative | [3] inactive; negative | [4] inactive; negative | [5] inactive; negative | Test System: AMES SALMONELLA TYPHIMURIUM, Strain/Indicator: TA1535, Metabolic Activation: RAT, LIVER, S-9, AROCLOR 1254, Method: STANDARD PLATE inactive; negative | Test System: AMES SALMONELLA TYPHIMURIUM, Strain/Indicator: TA1537, Metabolic Activation: NONE, Method: STANDARD PLATE inactive; negative | Test System: AMES SALMONELLA TYPHIMURIUM, Strain/Indicator: TA1537, Metabolic Activation: RAT, LIVER, S-9, AROCLOR 1254, Method: STANDARD PLATE inactive; negative

CCN=NC(C)(C)OO
active: Test System: E. COLI, Strain/Indicator: WP2 (HCR-), Metabolic Activation: NONE active; positive
inactive: Test System: AMES SALMONELLA TYPHIMURIUM, Strain/Indicator: TA1535, Metabolic Activation: NONE inactive; negative

NS(=O)(=O)c1cc2c(cc1Cl)NC=NS2(=O)=O
inactive: Test System: AMES SALMONELLA TYPHIMURIUM, Strain/Indicator: TA97, Metabolic Activation: HAMSTER, LIVER, S-9, AROCLOR 1254 (10 OR 30%), Method: PREINCUBATION inactive; negative | [6] inactive; negative | Test System: AMES SALMONELLA TYPHIMURIUM, Strain/Indicator: TA97, Metabolic Activation: RAT, LIVER, S-9, AROCLOR 1254 (10 OR 30%), Method: PREINCUBATION inactive; negative | Test System: AMES SALMONELLA TYPHIMURIUM, Strain/Indicator: TA98, Metabolic Activation: HAMSTER, LIVER, S-9, AROCLOR 1254 (10 OR 30%), Method: PREINCUBATION inactive; negative | [7] inactive; negative | Test System: AMES SALMONELLA TYPHIMURIUM, Strain/Indicator: TA98, Metabolic Activation: RAT, LIVER, S-9, AROCLOR 1254 (10 OR 30%), Method: PREINCUBATION inactive; negative | Test System: AMES SALMONELLA TYPHIMURIUM, Strain/Indicator: TA100, Metabolic Activation: HAMSTER, LIVER, S-9, AROCLOR 1254 (10 OR 30%), Method: PREINCUBATION inactive; negative | [8] inactive; negative | Test System: AMES SALMONELLA TYPHIMURIUM, Strain/Indicator: TA100, Metabolic Activation: RAT, LIVER, S-9, AROCLOR 1254 (10 OR 30%), Method: PREINCUBATION inactive; negative | Test System: AMES SALMONELLA TYPHIMURIUM, Strain/Indicator: TA1535, Metabolic Activation: HAMSTER, LIVER, S-9, AROCLOR 1254 (10 OR 30%), Method: PREINCUBATION inactive; negative | [9] inactive; negative | Test System: AMES SALMONELLA TYPHIMURIUM, Strain/Indicator: TA1535, Metabolic Activation: RAT, LIVER, S-9, AROCLOR 1254 (10 OR 30%), Method: PREINCUBATION inactive; negative | Test System: AMES SALMONELLA TYPHIMURIUM, Strain/Indicator: TA1537, Metabolic Activation: HAMSTER, LIVER, S-9, AROCLOR 1254 (30%), Method: PREINCUBATION inactive; negative | [10] inactive; negative | Test System: AMES SALMONELLA TYPHIMURIUM, Strain/Indicator: TA1537, Metabolic Activation: RAT, LIVER, S-9, AROCLOR 1254 (30%), Method: PREINCUBATION inactive; negative

CCCCOC(=O)c1ccccc1C(=O)OCCCC
inactive: [11] inactive; negative | [7] inactive; negative | [12] inactive; negative | [13] inactive; negative | [8] inactive; negative | [14] inactive; negative | Test System: AMES SALMONELLA TYPHIMURIUM, Strain/Indicator: TA100, Metabolic Activation: S-9, Method: STANDARD PLATE inactive; negative | [15] inactive; negative | [9] inactive; negative | [5] inactive; negative | [16] inactive; negative | Test System: AMES SALMONELLA TYPHIMURIUM, Strain/Indicator: TA1535, Metabolic Activation: S-9, Method: STANDARD PLATE inactive; negative | [17] inactive; negative | [10] inactive; negative | [18] inactive; negative | Test System: MOUSE LYMPHOMA, Strain/Indicator: L5178Y (TK+/TK-), Metabolic Activation: NONE, Method: SUSPENSION/PLATE inactive; negative
active: [3] active; positive | Test System: MOUSE LYMPHOMA, Strain/Indicator: L5178Y (TK+/TK-), Metabolic Activation: RAT LIVER S-9, Method: SUSPENSION/PLATE active; positive

Cc1cc(Cl)ccc1OCCCC(=O)O
inactive: Test System: AMES SALMONELLA TYPHIMURIUM, Strain/Indicator: TA97, Metabolic Activation: NONE, Method: STANDARD PLATE inactive; negative | Test System: AMES SALMONELLA TYPHIMURIUM, Strain/Indicator: TA97, Metabolic Activation: RAT, LIVER, S-9, AROCLOR 1254, Method: STANDARD PLATE inactive; negative | [1] inactive; negative | [2] inactive; negative | [3] inactive; negative | [4] inactive; negative | Test System: AMES SALMONELLA TYPHIMURIUM, Strain/Indicator: TA102, Metabolic Activation: NONE, Method: STANDARD PLATE inactive; negative | Test System: AMES SALMONELLA TYPHIMURIUM, Strain/Indicator: TA102, Metabolic Activation: RAT, LIVER, S-9, AROCLOR 1254, Method: STANDARD PLATE inactive; negative

CCCCC(CC)COP(OCC(CC)CCCC)OCC(CC)CCCC (stereo unspecified)
inactive: [11] inactive; negative | [7] inactive; negative | [12] inactive; negative | [13] inactive; negative | [8] inactive; negative | [14] inactive; negative | [15] inactive; negative | [9] inactive; negative | [16] inactive; negative | [17] inactive; negative | [10] inactive; negative | [18] inactive; negative

Cc1ccc(NC(=O)CBr)cc1
inactive: Test System: AMES SALMONELLA TYPHIMURIUM, Strain/Indicator: TA100, Metabolic Activation: MOUSE, LIVER, S-9, AROCLOR 1254, Method: STANDARD PLATE inactive; negative | [3] inactive; negative

O[C@@H]1[C@H]2O[C@H]2c2c(ccc3ccccc23)[C@H]1O
active: [6] active; positive | [7] active; positive | [8] active; positive | [3] active; positive | Test System: AMES SALMONELLA TYPHIMURIUM, Strain/Indicator: TA104, Metabolic Activation: NONE, Method: PREINCUBATION active; positive | Test System: CHINESE HAMSTER V-79, Strain/Indicator: V-79/6-THIOGUANINE, Metabolic Activation: NONE active; positive
